Results as given in PubChem BioAssay AID248 (DTP/NCI, 2004).
Values joined by “and” are separate entries in the source; they are usually repeats but may differ in a detail not shown here. Equal entries are not always repeated. Inconclusive results and toxic doses are left out. No stated cut-off is given here; in the data, active means T/C of 150% or more; inactive means T/C below 125%.

Tested on: L1210 leukemia ip in BDF1 mice, survival T/C
Experiment: NCI In Vivo Anticancer Drug Screen. Data for tumor model L1210 Leukemia (intraperitoneal) in B6D2F1 (BDF1) mice
Details: endpoint: mean survival time, higher = longer survival
Method in brief: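 Tumor was transplanted into mice, which were then dosed with test compound or vehicle alone. Survival was recorded for each group, and the treated figure was expressed relative to the control figure.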

[1] = dose: 100.0 mg/kg/injection, schedule: Q04DX003 (ip), vehicle: saline
[2] = dose: 200.0 mg/kg/injection, schedule: Q04DX003 (ip), vehicle: saline
[3] = dose: 400.0 mg/kg/injection, schedule: Q04DX003 (ip), vehicle: saline
[4] = dose: 100.0 mg/kg/injection, schedule: Q04DX003 (ip), vehicle: Klucel (hydroxypropylcellulose) (HPC)
[5] = dose: 200.0 mg/kg/injection, schedule: Q04DX003 (ip), vehicle: Klucel (hydroxypropylcellulose) (HPC)
[6] = dose: 400.0 mg/kg/injection, schedule: Q04DX003 (ip), vehicle: Klucel (hydroxypropylcellulose) (HPC)
[7] = dose: 25.0 mg/kg/injection, schedule: Q01DX009 (ip), vehicle: Klucel (hydroxypropylcellulose) (HPC)
[8] = dose: 50.0 mg/kg/injection, schedule: Q01DX009 (ip), vehicle: Klucel (hydroxypropylcellulose) (HPC)
[9] = dose: 50.0 mg/kg/injection, schedule: Q04DX003 (ip), vehicle: saline
[10] = dose: 100.0 mg/kg/injection, schedule: Q01DX001 (ip), vehicle: saline
[11] = dose: 200.0 mg/kg/injection, schedule: Q01DX001 (ip), vehicle: saline
[12] = dose: 400.0 mg/kg/injection, schedule: Q01DX001 (ip), vehicle: saline
[13] = dose: 100.0 mg/kg/injection, schedule: Q04DX002 (ip), vehicle: saline with Tween-80
[14] = dose: 200.0 mg/kg/injection, schedule: Q04DX002 (ip), vehicle: saline with Tween-80
[15] = dose: 400.0 mg/kg/injection, schedule: Q04DX002 (ip), vehicle: saline with Tween-80
[16] = dose: 100.0 mg/kg/injection, schedule: Q01DX009 (ip), vehicle: Klucel (hydroxypropylcellulose) (HPC)
[17] = dose: 200.0 mg/kg/injection, schedule: Q01DX009 (ip), vehicle: Klucel (hydroxypropylcellulose) (HPC)
[18] = dose: 400.0 mg/kg/injection, schedule: Q01DX009 (ip), vehicle: Klucel (hydroxypropylcellulose) (HPC)
[19] = dose: 100.0 mg/kg/injection, schedule: Q04DX003 (ip), vehicle: saline with Tween-80
[20] = dose: 200.0 mg/kg/injection, schedule: Q04DX003 (ip), vehicle: saline with Tween-80
[21] = dose: 400.0 mg/kg/injection, schedule: Q04DX003 (ip), vehicle: saline with Tween-80
[22] = dose: 100.0 mg/kg/injection, schedule: Q04DX002 (ip), vehicle: Klucel (hydroxypropylcellulose) (HPC)
[23] = dose: 200.0 mg/kg/injection, schedule: Q04DX002 (ip), vehicle: Klucel (hydroxypropylcellulose) (HPC)
[24] = dose: 400.0 mg/kg/injection, schedule: Q04DX002 (ip), vehicle: Klucel (hydroxypropylcellulose) (HPC)

Measured: T/C

CSc1nc2[nH]cc(C(=O)O)c(=O)c2c(=O)[nH]1
inactive: [1] 104 % of control | [2] 101 % of control | [3] 91 % of control

O=C(O)/C=C\C(=O)NCC1CCC(CNC(=O)/C=C\C(=O)O)CC1 (stereo not given)
inactive: [4] 98 % of control | [5] 100 % of control | [6] 102 % of control

CCCCCCCCCOCCOCCOCCN
inactive: dose: 12.0 mg/kg/injection, schedule: Q01DX009 (ip), vehicle: Klucel (hydroxypropylcellulose) (HPC) 99 % of control | [7] 100 % of control | dose: 25.0 mg/kg/injection, schedule: Q04DX003 (ip), vehicle: saline 102 % of control | [8] 100 % of control | [9] 96 % of control | [1] 86 % of control

CCC(Nc1ccccc1)C(=O)O (stereo not given)
inactive: [10] 96 % of control | [11] 100 % of control | [12] 102 % of control

CCCS(=O)(=O)N1CCCCCC1
inactive: [13] 92 % of control | [14] 92 % of control | [15] 92 % of control

CC(C)C(=O)Nc1cccnc1
inactive: dose: 10.0 mg/kg/injection, schedule: Q01DX001 (ip), vehicle: saline 100 % of control | dose: 20.0 mg/kg/injection, schedule: Q01DX001 (ip), vehicle: saline 103 % of control | dose: 40.0 mg/kg/injection, schedule: Q01DX001 (ip), vehicle: saline 94 % of control

OCCC/C=C/CCI
inactive: [16] 93 % of control | [4] 112 % of control | [17] 90 % of control | [5] 109 % of control | [18] 98 % of control | [6] 91 % of control

Cc1cc(Cl)ccc1NC(=O)Nc1c(Oc2ccc(Cl)cc2)ccc(Cl)c1S(=O)(=O)O
inactive: dose: 50.0 mg/kg/injection, schedule: Q01DX009 (ip), vehicle: saline 104 % of control | [9] 95 % of control | dose: 100.0 mg/kg/injection, schedule: Q01DX009 (ip), vehicle: saline 104 % of control | [1] 97 % of control | dose: 200.0 mg/kg/injection, schedule: Q01DX009 (ip), vehicle: saline 100 % of control | [2] 103 % of control

Cc1ccccc1NC=O
inactive: dose: 100.0 mg/kg/injection, schedule: Q01DX009 (ip), vehicle: saline with Tween-80 101 % of control | [19] 87 % of control | dose: 200.0 mg/kg/injection, schedule: Q01DX009 (ip), vehicle: saline with Tween-80 101 % of control | [20] 91 % of control | [21] 100 % of control

CC(=O)O[C@]1(C(C)=O)CC[C@H]2[C@@H]3CCC4=CC(=O)[C@H](C)C[C@]4(C)[C@@]3(F)[C@@H](O)C[C@@]21C
inactive: dose: 25.0 mg/kg/injection, schedule: Q01DX015 (sc), vehicle: steriod suspending solution 100 % of control | dose: 50.0 mg/kg/injection, schedule: Q01DX015 (sc), vehicle: steriod suspending solution 104 % of control | dose: 100.0 mg/kg/injection, schedule: Q01DX015 (sc), vehicle: steriod suspending solution 100 % of control | dose: 200.0 mg/kg/injection, schedule: Q01DX015 (sc), vehicle: steriod suspending solution 104 % of control and 115 % of control | dose: 400.0 mg/kg/injection, schedule: Q01DX015 (sc), vehicle: steriod suspending solution 109 % of control | dose: 800.0 mg/kg/injection, schedule: Q01DX015 (sc), vehicle: steriod suspending solution 110 % of control

O=C(NSN1CCOCC1)c1ccccc1
inactive: [22] 102 % of control | [23] 98 % of control

CC(O)NC(=O)C1CC2c3cccc4[nH]cc(c34)CC2N(C)C1 (stereo not given)
inactive: [4] 100 % of control | [5] 97 % of control | [6] 105 % of control

Nc1nc2c(c(-c3ccc(Cl)cc3)n1)CN(CCCC(=O)O)C2=O
inactive: [10] 105 % of control | [1] 96 % of control | [11] 98 % of control | [2] 104 % of control | [12] 100 % of control | [3] 107 % of control

O=C(c1ccccc1)C1CCCCCC1
inactive: [16] 108 % of control | [4] 94 % of control | [17] 102 % of control | [5] 98 % of control | [18] 104 % of control | [6] 98 % of control

O=C(/C=C/c1ccccc1)N(c1ccccc1)C1CCCCC1
inactive: [4] 112 % of control | [5] 89 % of control | [6] 88 % of control

OC1(c2ccccc2)c2ccccc2C(O)(c2ccccc2)c2cc3c(cc21)CCCC3 (stereo not given)
inactive: [22] 102 % of control | [23] 91 % of control | [24] 91 % of control

CCC[CH2][Sn](=[O])[OH]
inactive: [13] 91 % of control | [14] 91 % of control | [15] 94 % of control

C[C@H]1C[C@H]2[C@@H]3CC[C@](O)(C(=O)CF)[C@@]3(C)C[C@H](O)[C@]2(F)[C@@]2(C)C=CC(=O)C=C12
inactive: dose: 50.0 mg/kg/injection, schedule: Q01DX001 (ip), vehicle: carboxymethylcellulose (CMC) 105 % of control | dose: 100.0 mg/kg/injection, schedule: Q01DX001 (ip), vehicle: carboxymethylcellulose (CMC) 113 % of control | dose: 200.0 mg/kg/injection, schedule: Q01DX001 (ip), vehicle: carboxymethylcellulose (CMC) 113 % of control | dose: 400.0 mg/kg/injection, schedule: Q01DX001 (ip), vehicle: carboxymethylcellulose (CMC) 113 % of control

CCOC(=O)NC(=O)n1ncnc1N
inactive: [1] 108 % of control | [2] 103 % of control | [3] 94 % of control

CCOC(=O)CSc1ccc([N+](=O)[O-])cc1Cl
inactive: [16] 102 % of control | [22] 96 % of control and 101 % of control | [17] 106 % of control | [23] 104 % of control and 106 % of control | [18] 104 % of control | [24] 95 % of control and 101 % of control

Cc1ccc2nc(C#N)c(C#N)nc2c1
inactive: dose: 6.25 mg/kg/injection, schedule: Q01DX009 (ip), vehicle: Klucel (hydroxypropylcellulose) (HPC) 106 % of control | dose: 12.5 mg/kg/injection, schedule: Q01DX009 (ip), vehicle: Klucel (hydroxypropylcellulose) (HPC) 97 % of control | [7] 95 % of control and 89 % of control

CCCCCCCCCCCCNC1=C(Cl)C(=O)C(=O)c2cccnc21
inactive: [19] 98 % of control | [20] 101 % of control | [21] 95 % of control

CCOC(=O)C1(c2ccccc2)CCN(CC(O)COc2cc(C)ccc2C(C)C)CC1 (stereo not given)
inactive: [7] 91 % of control | [8] 100 % of control | [16] 93 % of control and 97 % of control

O=Cc1ccc(OCCBr)cc1
inactive: [19] 98 % of control | [20] 97 % of control | [21] 103 % of control

C=C1CC2(C)C(=O)CCCC2OC1=O (stereo not given)
inactive: dose: 25.0 mg/kg/injection, schedule: Q01DX001 (ip), vehicle: saline 91 % of control | dose: 50.0 mg/kg/injection, schedule: Q01DX001 (ip), vehicle: saline 100 % of control | dose: 100.0 mg/kg/injection, schedule: Q01DX001 (ip), vehicle: saline with Tween-80 102 % of control | [10] 106 % of control

CCOC(=O)C(Cc1ccc(O)cc1)NP(=O)(OCCCl)OCCCl (stereo not given)
inactive: [16] 100 % of control | [4] 95 % of control | [17] 98 % of control | [5] 90 % of control | [18] 100 % of control | [6] 94 % of control

CCCCCCCCN/N=C(/C)CCCCCO
inactive: [10] 98 % of control | [11] 103 % of control | [12] 103 % of control

Cc1ccc(C(C)C)cc1NC(=O)c1c(Cl)c(Cl)c(Cl)c(Cl)c1C(=O)O
inactive: [7] 108 % of control | [8] 91 % of control | [16] 103 % of control and 90 % of control

O=C/C(=C/c1ccccc1)c1ccccc1
inactive: [16] 98 % of control | [4] 107 % of control | [17] 101 % of control | [5] 98 % of control | [18] 95 % of control | [6] 102 % of control

O=C(NCCCl)NC1CCSc2ccccc21 (stereo not given)
inactive: [19] 101 % of control | [20] 95 % of control

NC(=O)N/N=C(\CCl)c1ccccc1
inactive: dose: 12.0 mg/kg/injection, schedule: Q04DX003 (ip), vehicle: saline 93 % of control
